Experimental data: article PMC2700083, “A covalent peptide inhibitor of RGS4 identified in a focused one-bead, one compound library screen” (BMC Pharmacology, 2009)
Residue numbers refer to the chain shown, from its start. “And” between values parts separate entries of the source, which are not always exact repeats. Equal values may be shown once. Read-outs that look alike come from different tables or passages of the source. Where a SMILES comes first, the peptide text is derived from it. Bridges are numbered along the chain shown (N, C = ends).

Experiments:
[1] = biological target: T1, RGS4 A71C, -7C (Rattus norvegicus, UniProt P49799, C132A/C148A/C183A/C197A/C204A/C95A); assay: FCPIA, RGS4 A71C in the -7C; assay type: binding; conditions: read-out: 5nd logIC50 (converted)
T1 construct: made in house
Method: (§1) Figure 5 Dose curves of 5nd on various RGS4 cysteine mutants. Various concentrations of 5nd were tested for disruption of the RGS4-Gαo interaction for C95A (5 nM), or […], C71A (5nM) or C148A (5nM) (B), A95C in the -7C (5nM), or A132C in the -7C (5nM) (C), A71C in the -7C (5nM), or A148C in the -7C (5nM) (D) or the mutant with no cysteines in the domain (20 nM) or the C-terminus (20 nM) (E) in the FCPIA (mean ± S.E.M., n ≥ 3).
(§2) The previous experiments tested which cysteines are necessary for inhibition by 5nd. In an alternative approach, we added cysteines back to the -7C mutant to determine which might be sufficient for 5nd activity. […] Furthermore, Cys132 is involved in the actions but this is clearly not sufficient to explain them. Thus it is concluded that 5nd is at least partially non-selective in its cysteine modification.
(§3) Proteins were expressed, purified and labeled as described previously. The mutagenesis was done using the "QuickChange Multi Site-Directed Mutagenesis Kit" from Stratagene according to the manufacturer's protocol. The construct of RGS4 used in these studies is a maltose binding protein (MBP-) fusion protein of the RGS4 sequence from which the amphipathic N-terminal helix has been removed (i.e. MBP-RGS4Δ51N). For simplicity in the text, this will be referred to as RGS4. […]

[2] = biological target: T2, RGS7 (Homo sapiens, UniProt P49802); assay: FCPIA, Gαo binding to RGS7; conditions: Figure 2
T2 construct: RGS7 RGS domain (aa: 305–453); made in house
T2 sequence (P49802 305-453): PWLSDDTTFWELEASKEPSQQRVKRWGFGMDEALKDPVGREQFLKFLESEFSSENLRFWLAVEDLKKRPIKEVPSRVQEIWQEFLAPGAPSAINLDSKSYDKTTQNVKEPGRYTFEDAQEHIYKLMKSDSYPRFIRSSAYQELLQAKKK
Method: We recently described a bead-based screen in which 2.5 × 10^6 different peptide sequences were prepared as a OBOC library. Fluorescently labeled RGS4 was used to probe the library for peptides that bind RGS4 [5]. […] Since the majority of those hit peptides could bind tightly to the RGS without disrupting GAP activity, they were also tested in the flow cytometry protein interaction assay (FCPIA) (Figure 1), which measures the interaction between RGS4 and Gαo. In this method we used a Luminex flow cytometer to detect the binding of Alexa Fluor 532-labeled Gαo to biotinylated RGS4 on avidin beads in the presence of AMF (AlCl3, MgCl2, NaF and GDP) to put the Gα subunit into a transition state-like conformation. Peptides were tested at 50 μM except where limited by solubility (Table 1).
5nd inhibited Gαo binding to a number of different RGS proteins (Figure 2). […] RGS19 and RGS7 are in the RZ and R7 families, respectively and show less inhibition by 5nd. Linear as well as bridged versions of peptide 5 were tested in the FCPIA since cyclization yields would most likely have been less then 100% in the synthesis of the library leaving some linear peptides present on each bead. […] This may be due to lack of structural rigidity necessary for the correct interaction of the peptide with the RGS protein or a role for chemical reactivity of the disulfide.
Figure 2 Characterization of hit 5. […]

[3] = biological target: T3, RGS4 -7C (Rattus norvegicus, UniProt P49799, C132A/C148A/C183A/C197A/C204A/C71A/C95A); assay: FCPIA, RGS4 -7C mutant (all 7 cysteines removed); assay type: binding; conditions: read-out: 5nd logIC50 (converted)
T3 construct: made in house
Method: (§4) Since 5nd forms an irreversible, DTT-sensitive bond with RGS, it was suspected that it binds covalently to a cysteine in the protein through a disulfide bridge. Indeed, removal of all 7 cysteines (termed the -7C mutant) from RGS4 greatly diminished 5nd activity (logIC50 of -3.24 ± 0.14 for -7C vs. -4.36 ± 0.02 for wild type) (Figure 5, Table 2).
as §1, §3

[4] = biological target: T4, RGS4 A148C, -7C (Rattus norvegicus, UniProt P49799, C132A/C183A/C197A/C204A/C71A/C95A); assay: FCPIA, RGS4 A148C in the -7C; assay type: binding; conditions: read-out: 5nd logIC50 (converted)
T4 construct: made in house
T4 sequence (P49799 52-205 C71A/C95A/C132A/C183A/C197A/C204A): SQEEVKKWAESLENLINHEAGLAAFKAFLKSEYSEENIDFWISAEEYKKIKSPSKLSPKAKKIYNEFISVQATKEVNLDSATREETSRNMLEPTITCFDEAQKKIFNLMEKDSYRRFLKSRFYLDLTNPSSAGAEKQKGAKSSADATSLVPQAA
Method: as §1, §2, §3

[5] = biological target: T5, RGS4 C71A (Rattus norvegicus, UniProt P49799, C71A); assay: FCPIA, RGS4 cysteine mutant C71A; assay type: binding; conditions: read-out: 5nd logIC50 (converted)
T5 construct: made in house
T5 sequence (P49799 52-205 C71A limits assumed): T4 sequence (P49799 52-205 C71A/C95A/C132A/C183A/C197A/C204A) with A44C, A81C, A132C, A146C, A153C
Method: as §1
(§5) Proteins were expressed, purified and labeled as described previously. The mutagenesis was done using the "QuickChange Multi Site-Directed Mutagenesis Kit" from Stratagene according to the manufacturer's protocol. The construct of RGS4 used in these studies is a maltose binding protein (MBP-) fusion protein of the RGS4 sequence from which the amphipathic N-terminal helix has been removed (i.e. MBP-RGS4Δ51N). For simplicity in the text, this will be referred to as RGS4. All other RGS proteins were human sequences and were used as Mpb fusions: RGS7 RGS domain (aa: 305–453), RGS8 full length, RGS16 full length, and RGS19ΔC11 (amino acids 1–209). To cleave RGS4Δ51N from the MBP-His6 construct for MS analysis, MBP-His6-RGS4Δ51N was treated with 15% MBP-His6-TEV protease S219V [11] for 22 hours at 4°C and purified over a Ni-NTA column.
(§6) FCPIA was performed as previously published.

[6] = biological target: T6, RGS4 C148A (Rattus norvegicus, UniProt P49799, C148A); assay: FCPIA, RGS4 cysteine mutant C148A; assay type: binding; conditions: read-out: 5nd logIC50 (converted)
T6 construct: made in house
Method: as §1, §5, §6

[7] = biological target: T7, RGS4 no Cys in RGS domain (Rattus norvegicus, UniProt P49799, C132A/C148A/C71A/C95A); assay: FCPIA, RGS4 mutant with no Cys in RGS domain; assay type: binding
T7 construct: made in house
Method: as §4, §1, §3

[8] = biological target: T8, RGS4 A132C, -7C (Rattus norvegicus, UniProt P49799, C148A/C183A/C197A/C204A/C71A/C95A); assay: FCPIA, RGS4 A132C in the -7C; assay type: binding; conditions: read-out: 5nd logIC50 (converted)
T8 construct: made in house
Method: as §1, §2, §3

T7 sequence (P49799 52-205 C71A/C95A/C132A/C148A limits assumed): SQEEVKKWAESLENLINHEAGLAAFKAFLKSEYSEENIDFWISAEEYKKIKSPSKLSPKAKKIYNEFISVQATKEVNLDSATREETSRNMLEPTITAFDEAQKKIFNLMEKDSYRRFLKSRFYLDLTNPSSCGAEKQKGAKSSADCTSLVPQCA
T6 sequence (P49799 52-205 C148A limits assumed): as the sequence (P49799 52-205 C71A/C95A/C132A/C148A limits assumed) above, with A20C, A44C, A81C counted along it
T3 sequence (P49799 52-205 C71A/C95A/C132A/C148A/C183A/C197A/C204A): as the sequence (P49799 52-205 C71A/C95A/C132A/C148A limits assumed) above, with C132A, C146A, C153A counted along it
T1 sequence (P49799 52-205 C95A/C132A/C148A/C183A/C197A/C204A): as the sequence (P49799 52-205 C71A/C95A/C132A/C148A limits assumed) above, with A20C, C132A, C146A, C153A counted along it
T8 sequence (P49799 52-205 C71A/C95A/C148A/C183A/C197A/C204A): as the sequence (P49799 52-205 C71A/C95A/C132A/C148A limits assumed) above, with A81C, C132A, C146A, C153A counted along it

Structure (SMILES): CC(C)C[C@@H]1NC(=O)CNC(=O)[C@H](CCCCN)NC(=O)[C@@H](NC(=O)[C@H](Cc2c[nH]c3ccccc23)NC(=O)[C@@H](N)Cc2ccc(O)cc2)CSSC[C@@H](C(=O)N[C@@H](CCCCN)C(N)=O)NC1=O [Peptide 5nd, Tyr-Trp-c [Cys-Lys-Gly-Leu-Cys]-Lys-NH2, S-S] (H-YWCKGLCK-NH2; disulfide 3-7)
- IC50 [1]: 631 µM
- IC50 ([2]; read-out: logIC50, RGS7 (converted)): ~174 µM
- IC50 ([2]; dose response, read-out: IC50, Gαo binding to RGS7): 175 µM and ~175 µM
- IC50 [3]: 575 µM
- IC50 [4]: 309 µM
- IC50 [5]: 45.7 µM
- IC50 [6]: 53.7 µM
- IC50 ([7]; no Cys in RGS domain, read-out: 5nd logIC50 (converted)): 158 µM
- reduction of potency by removal of all 4 cysteines from the RGS domain ([7]; versus wild type RGS4): 3.6 fold
- IC50 [8]: 389 µM
